The values that follow come from patent US11628174B1, “Pharmaceutical compositions and methods for treating insomnia” (priority 2022, dated 2023).

One series relates to REM sleep. Conditions: background statement; cited from earlier work.
A further series relates to insomnia. Nature of the series: Clinical case reports: treatment of patients with insomnia. The series is classed as in vivo, human.
Series [1] relates to anti-IgE-induced release of prostaglandin D2 (PGD2) and leukotrienes C4/D4; release of cytokines. Conditions: background statement, cited from earlier work.
The test system of the next series is allergic rhinitis. The series is described as follows: Clinical case report: allergic rhinitis in a patient with insomnia. The series is classed as in vivo, human. As to conditions: Example 1; ebastine 20 mg once a day, about 3 months.
A short description of series [2]: Clinical case reports: tolerability and side effects in patients with insomnia. On the procedure: A patient had insomnia for more than 2 months before they were provided with medications.
A patient had insomnia for more than 3 months. […] After that, they were treated with the combination of ebastine (10 mg) and alprazolam (0.4 mg) daily.

As to `Cc1nnc2n1-c1ccc(Cl)cc1C(c1ccccc1)=NC2` [alprazolam, 8-chloro-1-methyl-6-phenyl-4H-s-triazolo[4,3-a] [1,4]benzodiazepine], in the series with REM sleep, the REM latency result is on record as “increases”; the “length of REM periods and frequency of REM burst activities” value is on record as “significantly decreases”. For the same molecule, the “chronic insomnia along with depression, improvement” value in the series on insomnia (Example 2, person, alprazolam 0.8 mg twice daily, 2 months) is “no improvement”.
For `CC(C)(C(=O)O)c1ccc(C(=O)CCCN2CCC(OC(c3ccccc3)c3ccccc3)CC2)cc1` [carebastine], the “release of PGD2” value in series [1] (metabolite of ebastine) is “inhibits”.
Consider `CC(C)(C)c1ccc(C(=O)CCCN2CCC(OC(c3ccccc3)c3ccccc3)CC2)cc1` [ebastine, 4-diphenylmethoxy-1-[3-(4-tert-butylbenzoyl)-propyl] piperidine], for which the allergic rhinitis improvement entry in the series with allergic rhinitis is “only improved marginally”. Moreover, in series [1], the “anti-IgE-induced release of prostaglandin D2 (PGD2) and leukotrienes C4/D4 (LTC4/D4)” value is recorded as “significantly inhibits”; the “release of cytokines, including GM-CSF, tumour necrosis factor-a and interleukin-8” value is “inhibited”. For the same molecule, the “insomnia (difficulty of falling to asleep) improvement” value in the series on insomnia (Example 1, person, ebastine 20 mg once a day, about 3 months) was “no improvement”.
Regarding `CN1CCN(C(=O)O[C@H]2c3nccnc3C(=O)N2c2ccc(Cl)cn2)CC1` [eszopiclone], in series [2] (Example 3, eszopiclone 1 mg daily for 2 weeks), the “tolerability (side effects of headache and dizziness)” value is “could not tolerate the side effects of headache and dizziness”. Also, in series [2] (Example 4, person, eszopiclone 1 mg daily for one week), the “tolerability (adverse reaction of headache)” value is recorded as “could not tolerate its adverse reaction of headache”.
Turning to `Cc1ccc(-c2nc3ccc(C)cn3c2CC(=O)N(C)C)cc1` [zolpidem], in series [2] (Example 3, person, zolpidem 10 mg daily for 1 month), the “tolerability (side effects of headache and dizziness)” value was “could not tolerate the side effects of headache and dizziness”.
